Series [1] in a line: Singlet oxygen generation, NIR emission at 1274 nm versus phenalenone. The series is classed as physicochemical. Particulars: aerated acetonitrile 5 × 10^–5 M, 298 K, excitation 365 nm, reference phenalenone. Here is the method:
In aerated DMSO solutions, complexes 1–3 display a fluorescence band only at ca 510 nm, attributed to ^1LL′CT/^1ILCT, due to easy quenching of the phosphorescence by oxygen. However, upon prolonged photoexcitation at 365 nm, a continuous enhancement of the phosphorescence band is observed. Simply irradiating with a hand UV–vis lamp, the initial blue-green emission gradually shifts to the orange enhanced emission. The phosphorescence increases its maximum intensity in ca 15 1, 8 2, or 12 min 3 (Figures and S23). […] This relatively rare behavior has been previously observed by us , and other groups, and is explained by the occurrence of a local sensitization caused by energy transfer from the low-energy triplet to ^3O2-producing singlet ^1O2, which is able to selectively react with the solvent creating a free oxygen microenvironment that switches-on a phosphorescence band due to ^3ILCT at 580 nm. The strong sensitivity of the phosphorescence emission in these complexes encourages us to determine their efficiency as ^1O2 sensitizers. The singlet oxygen generation of complexes 1–3 was examined in acetonitrile solution (5 × 10^–5 M) using a near-infrared detector upon excitation at 365 nm, detecting the characteristic emission profile of ^1O2 at λem ∼ 1274 nm (Figure ).

In the next series the test system is MCF-10A. Description: MTT cell viability assay on noncancerous MCF-10A cells, dark and 450 nm irradiation. The series is classed as cell-based, human. As to conditions: for EC50: MTT. From the text: (C∧N) cyclometalated Pt(II) complexes have been previously reported to have strong antiproliferative activities when associated with phenanthroline-based, diphosphine, acyclic diamino carbenes, or picolinate ligands. In particular, (Me2N-pbt)-cyclometalated platinum complexes have been previously reported by some of us to have antiproliferative properties in the micromolar range on a panel of cancer cell lines, prompting us to investigate the anticancer properties of complexes 1–4 in dark conditions and, considering their high quantum yield (ϕΔ) of ^1O2 generation, under irradiation conditions. Due to the poor solubility of the complexes in an aqueous environment, complexes 1–4 were first dissolved in DMSO and diluted in the culture media to reach a final concentration of 1% DMSO when incubated with the cells. All complexes were screened against the so-called “triple-negative” breast cancer cell line MDA-MB-231, lung adenocarcinoma cell line A549, and the noncancerous breast cell line MCF-10A for 72 h in dark conditions and under 5 min irradiation at 450 nm (see Experimental Section for details). The irradiation time was kept short to prevent light-induced toxicity of the energetic wavelength observed at longer irradiation times (data not shown). The measurement of the effective concentration at 50% (EC50) was carried out using the classical MTT assay, and the data are provided in Table .
In dark conditions, we could notice a strong influence of substituents on the picolinate ligands. […] This can be correlated with its poor stability in the culture medium mentioned above, which might reduce its cellular uptake. […] However, in dark conditions, no particular selectivity for cancer cells could be observed with similar activity measured against the noncancerous cell line MCF-10A. For the “light” experiments, the cells were preincubated with the complexes for 4 h in the dark, irradiated at 450 nm for 5 min, and then put back in the dark until 72 h. The photoactivity index (PI) values, defined as the ratio between the EC50 in dark conditions and the EC50 after irradiation for each cell line, are shown in Figure .
The human lung adenocarcinoma cell line A549 and human breast cancer cell line MDA-MB-231 were cultivated in DMEM (Dulbecco’s modified Eagle’s medium) containing GlutaMax I supplemented with 10% FBS at 37 °C in a humidified atmosphere and 5% CO2. The noncancerous cell line MCF-10A was maintained in DMEM:F12 (1:1) cell culture media, 5% heat-inactivated horse serum, supplemented with HEPES (20 mM), L-glutamine (2 mM), epidermal growth factor (20 ng/mL), hydrocortisone (500 ng/mL), cholera toxin (100 ng/mL), and insulin (10 μg/mL). Cell viability was evaluated by using a colorimetric method based on the tetrazolium salt MTT [3-(4,5-dimethylthiazol-2-yl)-2,5-diphenyltetrazolium bromide], which is reduced by viable cells to yield purple formazan crystals. Cells were seeded in 96-well plates at a density of 40000 cells/mL (100 μL per well). Stock solutions were prepared in DMSO for complexes 1–4 and in water for cisplatin. […] For dark experiments, after overnight attachment, a dilution series of the compounds was added to the medium, and the cells were incubated for a further 72 h. For the irradiated experiments, after overnight attachment, a dilution series of the compounds was added to the medium, and the cells were preincubated for 4 h. The cells were then irradiated at 450 nm for 5 min with a Kessil Lamp (power: 3 mW/cm^2, 1.13 × 10^–8 Einstein/s at 20 cm distance between the light source and 96-well plate) and the incubation was continued until 72 h. After 72 h, the medium was removed and the cells were incubated with MTT solution in PBS (10 μL of 5 mg/mL) for 2–3 h. The formed purple formazan crystals were dissolved in 100 μL of DMSO by thorough shaking, and the absorbance at 580 nm was read using a microplate reader (FLUOstar OPTIMA, BMG Labtech). Each test was performed with at least 3 replicates and repeated at least 3 times. […]
On the technique in general: Tetrazolium dyes change colour on reduction, which living cells bring about.

Read-outs that look alike come from different tables or passages of the source. Where only a bound is given, the exact number is not on record here.

One may read the EC50 as the concentration giving half of the maximal effect. With “[Pt(Me2N-pbt)(3-OH-pic-κN,O)] [Complex 3]”, in series [1], the “quantum yield (ϕΔ) of 1O2” value is recorded as 16.2%. Moreover, the “photoactivity index (PI), EC50 dark / EC50 after irradiation, MCF-10A” value with MCF-10A (5 min irradiation at 450 nm) is less than 2. Further, the EC50 was found to be 520 ± 50 nM with MCF-10A (4 h preincubation, 5 min irradiation at 450 nm, then dark until 72 h, read-out: EC50 MCF-10A light) and 1000 ± 200 nM in the series on MCF-10A (72 h incubation at 37 °C, dark, read-out: EC50 MCF-10A dark).

For the origin of these results see publication PMC12176268, “Structural Features and Photophysical and Antiproliferative Properties of Me2N‑pbt-Cycloplatinated Complexes with Picolinate Ligands” (Inorganic Chemistry, 2025).
